Patent US10640497B2, “Microbiocidal oxadiazole derivatives” (SYNGENTA PARTICIPATIONS AG, priority 2015, dated 2020)

What was measured:
[1] = tested on: Glomerella lagenarium (Colletotrichum lagenarium); assay: Fungicidal activity against Glomerella lagenarium (Colletotrichum lagenarium), liquid culture, cucumber, preventative (anthracnose); type: cell-based; conditions: Colletotrichum orbiculare, liquid culture (PDB), growth inhibition measured photometrically 3-4 days after application, compared to untreated control
Experimental: Mycelia fragments or conidia suspensions of a fungus, prepared either freshly from liquid cultures of the fungus or from cryogenic storage, are directly mixed into nutrient broth. DMSO solutions of the test compound (max. 10 mg/ml) is diluted with 0.025% Tween20 by a factor of 50 and 10 μl of this solution is pipetted into a microtiter plate (96-well format). The nutrient broth containing the fungal spores/mycelia fragments is then added to give an end concentration of the tested compound. The test plates are incubated in the dark at 24° C. and 96% relative humidity. The inhibition of fungal growth is determined photometrically after 2 to 7 days, depending on the pathosystem, and percent antifungal activity relative to the untreated check is calculated. Conidia of the fungus from cryogenic storage are directly mixed into nutrient broth (PDB potato dextrose broth). After placing a (DMSO) solution of test compound into a microtiter plate (96-well format), the nutrient broth containing the fungal spores is added. The test plates are incubated at 24° C. and the inhibition of growth is measured photometrically 3-4 days after application.

Phakopsora pachyrhizi = assay: Fungicidal activity against Phakopsora pachyrhizi, soybean, leaf disc preventative (Asian soybean rust); type: in vivo; conditions: foliar, 288 h, 12-14 days after application, compared to untreated control
Experimental: Leaf disks or leaf segments of various plant species are cut from plants grown in a greenhouse. The cut leaf disks or segments are placed in multiwell plates (24-well format) onto water agar. The leaf disks are sprayed with a test solution before (preventative) or after (curative) inoculation. Compounds to be tested are prepared as DMSO solutions (max. 10 mg/ml) which are diluted to the appropriate concentration with 0.025% Tween20 just before spraying. The inoculated leaf disks or segments are incubated under defined conditions (temperature, relative humidity, light, etc.) according to the respective test system. A single evaluation of disease level is carried out 3 to 14 days after inoculation, depending on the pathosystem. Percent disease control relative to the untreated check leaf disks or segments is then calculated. Soybean leaf disks are placed on water agar in multiwell plates (24-well format) and sprayed with the formulated test compound diluted in water. One day after application leaf discs are inoculated by spraying a spore suspension on the lower leaf surface. After an incubation period in a climate cabinet of 24-36 hours in darkness at 20° C. and 75% rh leaf disc are kept at 20° C. with 12 h light/day and 75% rh. The activity of a compound is assessed as percent disease control compared to untreated when an appropriate level of disease damage appears in untreated check leaf disks (12-14 days after application).

[2] = tested on: Puccinia recondita f. sp. tritici; assay: Fungicidal activity against Puccinia recondita f. sp. tritici, wheat, leaf disc curative (brown rust); type: in vivo; conditions: foliar, 144 h, wheat leaf segments, curative (applied 1 day after inoculation), 6-8 days after application, compared to untreated control
Experimental: (§1) Leaf disks or leaf segments of various plant species are cut from plants grown in a greenhouse. The cut leaf disks or segments are placed in multiwell plates (24-well format) onto water agar. The leaf disks are sprayed with a test solution before (preventative) or after (curative) inoculation. Compounds to be tested are prepared as DMSO solutions (max. 10 mg/ml) which are diluted to the appropriate concentration with 0.025% Tween20 just before spraying. The inoculated leaf disks or segments are incubated under defined conditions (temperature, relative humidity, light, etc.) according to the respective test system. A single evaluation of disease level is carried out 3 to 14 days after inoculation, depending on the pathosystem. Percent disease control relative to the untreated check leaf disks or segments is then calculated. Wheat leaf segments cv. Kanzler are placed on agar in multiwell plates (24-well format). The leaf segments are inoculated with a spore suspension of the fungus. Plates are stored in darkness at 19° C. and 75% rh. The formulated test compound diluted in water is applied 1 day after inoculation. The leaf segments are incubated at 19° C. and 75% rh under a light regime of 12 h light/12 h darkness in a climate cabinet and the activity of a compound is assessed as percent disease control compared to untreated when an appropriate level of disease damage appears in untreated check leaf segments (6-8 days after application).

[3] = tested on: Puccinia recondita f. sp. tritici; assay: Fungicidal activity against Puccinia recondita f. sp. tritici, wheat, leaf disc preventative (brown rust); type: in vivo; conditions: foliar, wheat leaf segments, preventative (inoculated 1 day after application), 7-9 days after application, compared to untreated control
Experimental: as §1, with “plates (24-well format) and sprayed with the formulated test compound diluted in water. The leaf” for “plates (24-well format). The leaf”, “of the fungus 1 day” for “of the fungus. Plates are stored in darkness at 19° C. and 75% rh. The formulated test compound diluted in water is applied 1 day”, “day after application. The inoculated” for “day after inoculation. The leaf”, “application. The inoculated leaf segments” for “inoculation. The leaf segments”, “leaf segments (7-9 days after” for “leaf segments (6-8 days after”

Compound | inhibition of growth at 20 ppm [1] [%] | pest or weed control at 200 ppm (Phakopsora pachyrhizi) [%] | pest or weed control at 200 ppm [2] [%] | pest or weed control at 200 ppm [3] [%] | melting point [°C]
CC(=O)N1CCN(Cc2ccc(-c3noc(C(F)(F)F)n3)cc2)C(=O)C1 [Compound A-35, 4-acetyl-1-[[4-[5-(trifluoromethyl)-1,2,4-oxadiazol-3-yl]phenyl]methyl]piperazin-2-one] | ≥ 80 | ≥ 80 | ≥ 80 | ≥ 80 | –
O=C1CCCON1Cc1ccc(-c2noc(C(F)(F)F)n2)cc1 [Compound A-37, 2-[[4-[5-(trifluoromethyl)-1,2,4-oxadiazol-3-yl]phenyl]methyl]oxazinan-3-one] | ≥ 80 | ≥ 80 | ≥ 80 | ≥ 80 | –
CON(C)C(=O)N1CCN(Cc2ccc(-c3noc(C(F)(F)F)n3)cc2)C(=O)C1 [Compound A-39, N-methoxy-N-methyl-3-oxo-4-[[4-[5-(trifluoromethyl)-1,2,4-oxadiazol-3-yl]phenyl]methyl]piperazine-1-carboxamide] | ≥ 80 | ≥ 80 | ≥ 80 | ≥ 80 | –
O=C1CN(C(=O)C2CC2)CCN1Cc1ccc(-c2noc(C(F)(F)F)n2)cc1 [Compound A-40, 4-(cyclopropane-carbonyl)-1-[[4-[5-(trifluoromethyl)-1,2,4-oxadiazol-3-yl]phenyl]methyl]piperazin-2-one] | ≥ 80 | ≥ 80 | ≥ 80 | ≥ 80 | –
CN(C)S(=O)(=O)N1CCN(Cc2ccc(-c3noc(C(F)(F)F)n3)cc2)C(=O)C1 [Compound A-42, N,N-dimethyl-3-oxo-4-[[4-[5-(trifluoromethyl)-1,2,4-oxadiazol-3-yl]phenyl]methyl]piperazine-1-sulfonamide] | ≥ 80 | ≥ 80 | ≥ 80 | ≥ 80 | –
CNS(=O)(=O)N1CCN(Cc2ccc(-c3noc(C(F)(F)F)n3)cc2)C(=O)C1 [Compound A-43, N-methyl-3-oxo-4-[[4-[5-(trifluoromethyl)-1,2,4-oxadiazol-3-yl]phenyl]methyl]piperazine-1-sulfonamide] | ≥ 80 | ≥ 80 | ≥ 80 | ≥ 80 | –
CN1CCN(Cc2ccc(-c3noc(C(F)(F)F)n3)cc2)C1=O [Compound A-46, 1-methyl-3-[[4-[5-(trifluoromethyl)-1,2,4-oxadiazol-3-yl]phenyl]methyl]imidazolidin-2-one] | ≥ 80 | ≥ 80 | ≥ 80 | ≥ 80 | –
CN1C(=O)CN(Cc2ccc(-c3noc(C(F)(F)F)n3)cc2)C1=O [Compound A-47, 3-methyl-1-[[4-[5-(trifluoromethyl)-1,2,4-oxadiazol-3-yl]phenyl]methyl]imidazolidine-2,4-dione] | ≥ 80 | ≥ 80 | ≥ 80 | ≥ 80 | –
CN1CCCN(Cc2ccc(-c3noc(C(F)(F)F)n3)cc2)C1=O [Compound A-48, 1-methyl-3-[[4-[5-(trifluoromethyl)-1,2,4-oxadiazol-3-yl]phenyl]methyl]hexahydro-pyrimidin-2-one] | ≥ 80 | ≥ 80 | ≥ 80 | ≥ 80 | –
CN1CC(=O)N(Cc2ccc(-c3noc(C(F)(F)F)n3)cc2)C1=O [Compound A-50, 1-methyl-3-[[4-[5-(trifluoromethyl)-1,2,4-oxadiazol-3-yl]phenyl]methyl]imidazolidine-2,4-dione] | ≥ 80 | ≥ 80 | ≥ 80 | ≥ 80 | –
O=C1CCCCN1Cc1ccc(-c2noc(C(F)(F)F)n2)nc1 [Compound A-53, 1-[[6-[5-(trifluoromethyl)-1,2,4-oxadiazol-3-yl]-3-pyridyl]methyl]piperidin-2-one] | – | – | ≥ 80 | ≥ 80 | 80 to 89
CC(C)(C)OC(=O)N1CC(=O)N(Cc2ccc(-c3noc(C(F)(F)F)n3)cc2)C(=O)C1 [Compound A-62, tert-butyl 3,5-dioxo-4-[[4-[5-(trifluoromethyl)-1,2,4-oxadiazol-3-yl]phenyl]methyl]piperazine-1-carboxylate] | ≥ 80 | – | – | ≥ 80 | 94 to 102
O=C1CCON1Cc1ccc(-c2noc(C(F)(F)F)n2)c(F)c1F [Compound A-66, 2-[[2,3-difluoro-4-[5-(trifluoromethyl)-1,2,4-oxadiazol-3-yl]phenyl]methyl]isoxazolidin-3-one] | ≥ 80 | ≥ 80 | ≥ 80 | ≥ 80 | –
O=C1CCCCCN1Cc1ccc(-c2noc(C(F)(F)F)n2)c(F)c1 [Compound A-69, 1-[[3-fluoro-4-[5-(trifluoromethyl)-1,2,4-oxadiazol-3-yl]phenyl]methyl]azepan-2-one] | ≥ 80 | – | – | ≥ 80 | 80 to 84
O=C1CCCCCN1Cc1ccc(-c2noc(C(F)(F)F)n2)cc1 [Compound A-70, 1-[[4-[5-(trifluoromethyl)-1,2,4-oxadiazol-3-yl]phenyl]methyl]azepan-2-one] | ≥ 80 | ≥ 80 | ≥ 80 | ≥ 80 | –
CON1CCN(c2ccc(-c3noc(C(F)(F)F)n3)cc2)C1=O [Compound C-3, 1-methoxy-3-[4-[5-(trifluoromethyl)-1,2,4-oxadiazol-3-yl]phenyl]imidazolidin-2-one] | ≥ 80 | – | – | – | 185 to 190
O=S1(=O)CCCN1c1ccc(-c2noc(C(F)(F)F)n2)cc1 [Compound D-1, 2-[4-[5-(trifluoromethyl)-1,2,4-oxadiazol-3-yl]phenyl]-1,2-thiazolidine 1,1-dioxide] | ≥ 80 | ≥ 80 | ≥ 80 | ≥ 80 | –
